Experimental data reported in PubChem BioAssay (NCI).
“And” between values parts separate entries of the source, which are not always exact repeats. Identical values can stand only once.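 Step 1: Grow cells in 96-well plates. Step 2: Expose to compound for 48 hours at 5 concentrations. Step 3: Interpolate endpoints linearly; if unreached, use highest concentration. Definition used: TGI = concentration required for complete inhibition of growth.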

Key:
Experiment in all cases: growth of human tumour cells (NCI), 48 h
M14 melanoma = tested on: M14 melanoma
PC-3 prostate = tested on: PC-3 prostate
CCRF-CEM leukemia = tested on: CCRF-CEM leukemia
MALME-3M melanoma = tested on: MALME-3M melanoma
T-47D breast = tested on: T-47D breast
MDA-N = tested on: MDA-N
RXF 393 renal = tested on: RXF 393 renal
OVCAR-3 ovarian = tested on: OVCAR-3 ovarian
NCI-H23 lung = tested on: NCI-H23 lung
KM12 colon = tested on: KM12 colon
HOP-92 NSCLC = tested on: HOP-92 NSCLC
OVCAR-5 ovarian = tested on: OVCAR-5 ovarian
BT-549 breast = tested on: BT-549 breast
SR leukemia = tested on: SR leukemia

| Compound | TGI (M14 melanoma) [µM] | TGI (PC-3 prostate) | TGI (CCRF-CEM leukemia) [µM] | TGI (MALME-3M melanoma) [µM] | TGI (T-47D breast) [µM] | TGI (MDA-N) [µM] | TGI (RXF 393 renal) [µM] | TGI (OVCAR-3 ovarian) [µM] | TGI (NCI-H23 lung) | TGI (KM12 colon) [µM] | TGI (HOP-92 NSCLC) [µM] | TGI (OVCAR-5 ovarian) | TGI (BT-549 breast) [µM] | TGI (SR leukemia) [µM] |
| --- | --- | --- | --- | --- | --- | --- | --- | --- | --- | --- | --- | --- | --- | --- |
| Cn1c(=O)c2c(nc(N/N=C3/SCC(=O)N3Cc3ccccc3)n2C)n(C)c1=O | > 100 | > 100 µM | > 100 | > 100 | > 100 | > 100 | > 100 | 90.4 | > 100 µM | > 100 | 78.7 | > 100 µM | > 100 |  |
| Cc1ccc2nc(C(=O)O)c(=O)[nH]c2c1 | > 100 | > 100 µM | > 100 | > 100 | > 100 | > 100 | > 100 | > 100 | > 100 µM | > 100 | > 100 | > 100 µM | > 100 | > 100 |
| C=CCNC1=C2C[C@@H](C)C[C@@H](OC)[C@H](OC(=O)CCN(C)C)[C@H](C)/C=C(\C)[C@@H](OC(N)=O)[C@H](OC)/C=C\C=C(/C)C(=O)NC(=CC1=O)C2=O | 20.1 | 14.3 µM | > 55.3 | 19.2 | 12.8 | 14.3 | 11.7 | 3.61 | 17.1 µM | 1.98 | 29.2 | 25.8 µM | 26.4 | > 32.5 |
| Cc1cc(C)nc(NS(=O)(=O)c2ccc(Nc3c4ccccc4nc4ccc(C(=O)Nc5ccc(S(=O)(=O)N=C(N)N)cc5)cc34)cc2)n1 | > 100 | > 100 µM | > 100 | > 100 | > 100 | > 100 | > 100 | > 100 | > 100 µM | > 100 | > 100 | > 100 µM | 95.2 | > 100 |
| COC(=O)c1ccccc1C1CN=NC12Cc1c(C)ccc(C)c1C2=O (stereo not drawn) | > 100 | > 100 µM | > 100 | > 100 | > 100 | > 100 | > 100 | > 100 | > 100 µM | > 100 | > 100 | > 100 µM | > 100 |  |
| CC(C)=CCc1c2c(c(O)c3c(=O)c4c(oc13)-c1ccc(O)cc1OC4C=C(C)C)C=CC(C)(C)O2 (stereo not drawn) | 35.4 | 24.7 µM | 15.5 | 34.3 | 23 | 27.1 | 20.1 | 25.2 | 20.3 µM | 21.7 | 20.8 | 35.9 µM | 28.1 | 16 |
| CC1CCCN1CCCOC(=O)c1ccc(OC2C=CCCC2)cc1 (stereo not drawn) | 31.6 | 78.9 µM | 66.7 | 34.4 | 34.4 | > 100 | 52 | > 100 | 63.3 µM | > 100 |  | > 100 µM | > 100 | 59.9 |
| CCCCCCCCCCCCC1N=C(N)N2CCCC2=C1C(=O)OC (stereo not drawn) | 3.16 | 3.95 µM | 3.89 | 3.64 | 3.73 | 4.72 | 69.4 | 5.11 | 6.17 µM | 3.94 | 10.3 | 13 µM | 35 | > 100 |
| COc1ccc(/C(CC2OC(=O)c3ccccc32)=N\NC(N)=O)cc1 (stereo not drawn) | > 100 | > 100 µM | > 100 | > 100 | > 100 | > 100 | > 100 | > 100 | > 100 µM | > 100 | > 100 | > 100 µM | > 100 | > 100 |
| Cc1cc2occ(S(=O)(=O)NC(=O)Nc3ccc(Cl)cc3)c(=O)c2c(=O)o1 | > 100 | > 100 µM | > 100 | > 100 | > 100 | > 100 | > 100 | > 100 | > 100 µM | > 100 | > 100 | > 100 µM | > 100 |  |
| CCOC(=O)C1CCC(=O)N1C(=O)c1ccc(Cl)cc1 (stereo not drawn) | > 100 |  | > 100 | > 100 | > 100 | > 100 | > 100 | > 100 | > 100 µM | > 100 | > 100 | > 100 µM | > 100 | > 100 |
| CN(C)C(=O)Oc1ccc(C(=S)Nc2ccccc2)cc1 | > 100 | > 100 µM | 79.6 | > 100 | > 100 | > 100 |  | > 100 | > 100 µM | > 100 |  | > 100 µM | 79.7 | > 100 |
| O=S(=O)(O)c1cc(O)c(N=Nc2ccc3ccccc3c2O)c2ccccc12 | 41.4 | > 100 µM | > 100 | 9.66 | 84.6 | > 100 | > 100 | > 100 | 30.8 µM | > 100 | > 100 | > 100 µM | > 100 | > 100 |
| CCOC(=O)c1cn(CC)c2ccc3c(c2c1=O)S(=O)(=O)C=C3 | > 100 | > 100 µM | > 100 | > 100 | > 100 | > 100 | > 100 | > 100 | > 100 µM | > 100 | > 100 | > 100 µM | > 100 |  |
| COc1cccc(CCCNC(=O)Cc2ccccc2CO)c1 | > 100 | > 100 µM | > 100 | > 100 | > 100 | > 100 |  | > 100 | > 100 µM | > 100 | > 100 | > 100 µM | > 100 | > 100 |
| CCC(=C/[C@H](C)C/C=C/C(C)=C/[C@@H](C)C(=O)[C@@H](C)[C@H](O)[C@@H](C)CC)/C=C/[C@H]1CC=CC(=O)O1 | 0.159 | 1.45 µM and 11.5 µM | 0.179 | 2.31 | 1.88 | 0.00339 | < 0.0012 |  | 5.26 µM and 13.3 µM |  | 4.26 | 1.91 µM and 11 µM | 1.37 |  |
| CSc1nc[nH]c1C(N)=S | > 100 | > 100 µM |  | > 100 | > 100 | > 100 | > 100 | > 100 | > 100 µM | > 100 |  | > 100 µM | > 100 |  |
